Assay results published in US20120029187A1, “HALOALKYLSULFONANILIDE DERIVATIVE” (Nissan Chemical Industries, Ltd., priority 2009, published 2012).

Legend:
Type in all cases: in vivo
[1] = test system: ducksalad; assay: Test Example 1: herbicidal effects in preemergence treatment under submerged conditions; conditions: dose 2.52 g/a
Outline: (§1)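 Weed seeds and 2.5-leaf rice seedlings shared each flooded cup of alluvial soil. Dosing, expressed as g per are, was by pouring water-diluted emulsifiable concentrate onto the surface on sowing day. Mortality was graded 0 to 5 after three weeks' growth.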

[2] = test system: bulrush; assay: as above; conditions: dose 2.52 g/a
Outline: as §1

[3] = test system: barnyardgrass; assay: as above; conditions: dose 2.52 g/a
Outline: as §1

[4] = test system: common lambsquater; assay: Test Example 4: herbicidal effect in foliage treatment; conditions: dose 3.2 g/a, three weeks after application
Outline: (§2)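 Seeds sown in sterilized diluvial soil under ~1.5 cm soil cover and grown 14 days in a greenhouse at 25 to 30° C. Emulsifiable concentrates diluted with water were then sprayed uniformly on foliage at predetermined doses (g/a). Herbicidal effect was scored three weeks after application on a graded evaluation scale.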

[5] = test system: water foxtail; assay: as above; conditions: dose 3.2 g/a, three weeks after application
Outline: as §2

[6] = test system: common chickweed; assay: as above; conditions: dose 3.2 g/a, three weeks after application
Outline: as §2

[7] = test system: large crabgrass; assay: as above; conditions: dose 3.2 g/a, three weeks after application
Outline: as §2

[8] = test system: Italian ryegrass; assay: as above; conditions: dose 3.2 g/a, three weeks after application
Outline: as §2

[9] = test system: giant foxtail; assay: as above; conditions: dose 3.2 g/a, three weeks after application
Outline: as §2

[10] = test system: common ragweed; assay: as above; conditions: dose 3.2 g/a, three weeks after application
Outline: as §2

[11] = test system: redroot pigweed; assay: as above; conditions: dose 3.2 g/a, three weeks after application
Outline: as §2

[12] = test system: velvetleaf; assay: as above; conditions: dose 3.2 g/a, three weeks after application
Outline: as §2

[13] = test system: posumbu knotweed; assay: as above; conditions: dose 3.2 g/a, three weeks after application
Outline: as §2

[14] = test system: beadstraw; assay: as above; conditions: dose 3.2 g/a, three weeks after application
Outline: as §2

[15] = test system: barnyardgrass; assay: as above; conditions: dose 3.2 g/a, three weeks after application
Outline: as §2

[16] = test system: common lambsquater; assay: Test Example 3: herbicidal effects in soil treatment; conditions: dose 3.2 g/a
Outline: (§3)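 Seeds were sown in sterilized diluvial soil and covered with about 1.5 cm of soil. Compounds, formulated as emulsifiable concentrates and diluted with water, were sprayed evenly over the soil surface at set doses in g/a. Herbicidal effect was scored on a rating scale three weeks later.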

[17] = test system: water foxtail; assay: as above; conditions: dose 3.2 g/a
Outline: as §3

[18] = test system: common chickweed; assay: as above; conditions: dose 3.2 g/a
Outline: as §3

[19] = test system: large crabgrass; assay: as above; conditions: dose 3.2 g/a
Outline: as §3

[20] = test system: Italian ryegrass; assay: as above; conditions: dose 3.2 g/a
Outline: as §3

[21] = test system: giant foxtail; assay: as above; conditions: dose 3.2 g/a
Outline: as §3

[22] = test system: common ragweed; assay: as above; conditions: dose 3.2 g/a
Outline: as §3

[23] = test system: redroot pigweed; assay: as above; conditions: dose 3.2 g/a
Outline: as §3

[24] = test system: velvetleaf; assay: as above; conditions: dose 3.2 g/a
Outline: as §3

[25] = test system: posumbu knotweed; assay: as above; conditions: dose 3.2 g/a
Outline: as §3

[26] = test system: barnyardgrass; assay: as above; conditions: dose 3.2 g/a
Outline: as §3

[27] = test system: ducksalad; assay: Test Example 2: herbicidal effects during the vegetation period under submerged conditions; conditions: treatment during the vegetation period under submerged conditions; dose 2.52 g/a
Outline: (§4)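 Barnyardgrass, bulrush and ducksalad were co-sown in alluvial soil flooded to 4 cm and grown in a greenhouse at 25 to 30° C. At the 1- or 2-leaf stage, water-diluted emulsifiable concentrates went onto the water surface at set doses (g/a). Herbicidal effect was scored three weeks later on a graded scale.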

[28] = test system: bulrush; assay: as above; conditions: treatment during the vegetation period under submerged conditions; dose 2.52 g/a
Outline: as §4

[29] = test system: barnyardgrass; assay: as above; conditions: treatment during the vegetation period under submerged conditions; dose 2.52 g/a
Outline: as §4

[30] = test system: transplanted rice; assay: Test Example 1: preemergence treatment under submerged conditions, effect on crop; conditions: dose 2.52 g/a
Outline: as §1

Row | Structure (SMILES) | C: ducksalad, herbicidal effect (evaluation scale 0-5) [1] | B: bulrush, herbicidal effect (evaluation scale 0-5) [2] | A: barnyardgrass, herbicidal effect (evaluation scale 0-5) [3] | L: common lambsquater, herbicidal effect [4] | G: water foxtail, herbicidal effect [5] | N: common chickweed, herbicidal effect [6] | D: large crabgrass, herbicidal effect [7] | H: Italian ryegrass, herbicidal effect [8] | E: giant foxtail, herbicidal effect [9] | J: common ragweed, herbicidal effect [10] | K: redroot pigweed, herbicidal effect [11] | I: velvetleaf, herbicidal effect [12] | M: posumbu knotweed, herbicidal effect [13] | O: beadstraw, herbicidal effect [14] | A: barnyardgrass, herbicidal effect [15] | L: common lambsquater, herbicidal effect (evaluation scale 0-5) [16] | G: water foxtail, herbicidal effect (evaluation scale 0-5) [17] | N: common chickweed, herbicidal effect (evaluation scale 0-5) [18] | D: large crabgrass, herbicidal effect (evaluation scale 0-5) [19] | H: Italian ryegrass, herbicidal effect (evaluation scale 0-5) [20] | other results
1 | CCOC(=O)N(c1ccccc1CN1COC(C)(COC)CC1=O)S(=O)(=O)C(F)(F)F (stereo not drawn) [II-55] | 5 (mortality of 90% or above (nearly complete death)) | 5 (mortality of 90% or above (nearly complete death)) | 5 (mortality of 90% or above (nearly complete death)) | 4 (mortality of at least 70% and less than 90%) | 5 (mortality of 90% or above (nearly complete death)) | 4 (mortality of at least 70% and less than 90%) | 4 (mortality of at least 70% and less than 90%) | 5 (mortality of 90% or above (nearly complete death)) | 5 (mortality of 90% or above (nearly complete death)) | 4 (mortality of at least 70% and less than 90%) | 0 (mortality of less than 5% (almost ineffective)) | 5 (mortality of 90% or above (nearly complete death)) | 3 (mortality of at least 40% and less than 70%) | 4 (mortality of at least 70% and less than 90%) | 5 (mortality of 90% or above (nearly complete death)) | 4 (mortality of at least 70% and less than 90%) | 5 (mortality of 90% or above (nearly complete death)) | 5 (mortality of 90% or above (nearly complete death)) | 5 (mortality of 90% or above (nearly complete death)) | 5 (mortality of 90% or above (nearly complete death)) | E: giant foxtail, herbicidal effect (evaluation scale 0-5) [21]: 5 (mortality of 90% or above (nearly complete death)); J: common ragweed, herbicidal effect (evaluation scale 0-5) [22]: 5 (mortality of 90% or above (nearly complete death)); K: redroot pigweed, herbicidal effect (evaluation scale 0-5) [23]: 3 (mortality of at least 40% and less than 70%); I: velvetleaf, herbicidal effect (evaluation scale 0-5) [24]: 5 (mortality of 90% or above (nearly complete death)); M: posumbu knotweed, herbicidal effect (evaluation scale 0-5) [25]: 5 (mortality of 90% or above (nearly complete death)); A: barnyardgrass, herbicidal effect (evaluation scale 0-5) [26]: 5 (mortality of 90% or above (nearly complete death)); C: ducksalad, herbicidal effect (evaluation scale 0-5) [27]: 5 (mortality of 90% or above (nearly complete death)); B: bulrush, herbicidal effect (evaluation scale 0-5) [28]: 5 (mortality of 90% or above (nearly complete death)); A: barnyardgrass, herbicidal effect (evaluation scale 0-5) [29]: 5 (mortality of 90% or above (nearly complete death)); a: transplanted rice, effect on crop (evaluation scale 0-5) [30]: 0 (mortality of less than 5% (almost ineffective))
2 | CCC1(C)CC(=O)N(Cc2ccccc2N(C(=O)OCC(C)C)S(=O)(=O)C(F)(F)F)CO1 (stereo not drawn) [II-43] | 5 (mortality of 90% or above (nearly complete death)) | 5 (mortality of 90% or above (nearly complete death)) | 5 (mortality of 90% or above (nearly complete death)) | 2 (mortality of at least 20% and less than 40%) | 5 (mortality of 90% or above (nearly complete death)) | 3 (mortality of at least 40% and less than 70%) | 1 (mortality of at least 5% and less than 20%) | 4 (mortality of at least 70% and less than 90%) | 4 (mortality of at least 70% and less than 90%) | 3 (mortality of at least 40% and less than 70%) | 0 (mortality of less than 5% (almost ineffective)) | 5 (mortality of 90% or above (nearly complete death)) | 0 (mortality of less than 5% (almost ineffective)) | 4 (mortality of at least 70% and less than 90%) | 5 (mortality of 90% or above (nearly complete death)) | 5 (mortality of 90% or above (nearly complete death)) | 5 (mortality of 90% or above (nearly complete death)) | 5 (mortality of 90% or above (nearly complete death)) | 3 (mortality of at least 40% and less than 70%) | 5 (mortality of 90% or above (nearly complete death)) | E: giant foxtail, herbicidal effect (evaluation scale 0-5) [21]: 2 (mortality of at least 20% and less than 40%); J: common ragweed, herbicidal effect (evaluation scale 0-5) [22]: 3 (mortality of at least 40% and less than 70%); K: redroot pigweed, herbicidal effect (evaluation scale 0-5) [23]: 2 (mortality of at least 20% and less than 40%); I: velvetleaf, herbicidal effect (evaluation scale 0-5) [24]: 5 (mortality of 90% or above (nearly complete death)); M: posumbu knotweed, herbicidal effect (evaluation scale 0-5) [25]: 4 (mortality of at least 70% and less than 90%); A: barnyardgrass, herbicidal effect (evaluation scale 0-5) [26]: 4 (mortality of at least 70% and less than 90%); C: ducksalad, herbicidal effect (evaluation scale 0-5) [27]: 5 (mortality of 90% or above (nearly complete death)); B: bulrush, herbicidal effect (evaluation scale 0-5) [28]: 5 (mortality of 90% or above (nearly complete death)); A: barnyardgrass, herbicidal effect (evaluation scale 0-5) [29]: 5 (mortality of 90% or above (nearly complete death)); a: transplanted rice, effect on crop (evaluation scale 0-5) [30]: 0 (mortality of less than 5% (almost ineffective))
